Experimental data: US7357913B2, “Methods for detecting, prognosing, or monitoring a disorder by comparing relative flux rates of two or more biological molecules in vivo” (The Regents of the University of California, priority 2003, dated 2008)
Entries after “also recorded” stand apart in the source; their conditions may differ.

What was measured:
liver collagen = assay: Liver collagen synthesis (2H into hydroxyproline) after CCl4; assay type: in vivo, mouse
Description: Liver collagen synthesis was measured concurrently (i.e., simultaneously) with de novo DNA synthesis in the same CCl4-treated SJV mice. Collagen was purified from 10 mg of fresh total liver homogenate as follows: using a Polytron homogenizer, collagen was isolated from soft tissue by homogenizing in 0.5 mL 100 mM NaOH. Under these conditions, collagen remains insoluble while most other proteins are readily dissolved. After centrifugation at 7,000 ×g for 10 minutes at 4° C., the supernatant was discarded. The pellet was washed briefly with 2 mL H2O and solubilized in reducing Laemmli sample buffer (Bio-Rad, Hercules, Calif.) after boiling for 3 minutes. The dissolved material was size-fractionated by SDS-PAGE. […]
Acetone precipitated total liver protein and PVDF-bound collagen were hydrolyzed by treating with 6 N HCl, 16 hours at 110° C. […] Hydroxyproline was analyzed on a DB225 GC column, starting temp 100° C. increasing 10° C./min to 220° C. with selected ion monitoring of m/z 352,353.
Hydroxyproline is a molecule of interest and is measured as OH-proline, the molecule being essentially unique to collagen. Because of this fact, total liver protein hydrolysate can be derivatized and the ^2H enrichment of hydroxyproline determined by GC/MS as described, supra. […]

total liver cell = assay: Total liver cell proliferation (DNA synthesis) after CCl4; assay type: in vivo, mouse
Description: SVJ mice were injected 2× weekly with 1.0 ml/kg or 0.25 mL/kg of CCl4 or vehicle for up to 4 weeks Cell proliferation was measured at 2, 7, 14, 21 and 28 days of ^2H2O administration and CCl4 treatment using the methods of the present invention as described, supra.

colonocytes = assay: Colonocyte proliferation (de novo DNA synthesis, 2H2O labeling), gemcitabine study; assay type: in vivo, mouse; settings: male balb/C nu/nu mice with SW1573; for colon cell (colonocyte) proliferation: increasing doses every other day, 5 days
Description: (§1) Male balb/C nu/nu mice were implanted subcutaneously with non-small cell lung carcinoma cells (SW1573) cells in matrigel. Mice were labeled with 2H2O and treated with increasing doses of gemcitabine (Gem), administered every other day (as shown in FIG. 9). After 5 days, tumor, colon and bone marrow were removed using techniques well known in the art, and as described, supra. Cell proliferation was measured as described, supra. […] De novo DNA synthesis from all three cell types was measured concurrently using the methods of the present invention. Briefly, heavy water (^2H2O) is administered to living organisms (8% ^2H2O in drinking water). DNA is isolated, hydrolyzed to free dNs, and deuterium incorporation into the deoxyribose (dR) moiety of purine and pyrimidine dNs is measured by gas chromatography/mass spectrometry (GC/MS) as described, supra.

[1] = tested on: EMT7 mouse mammary carcinoma cells; assay: Tumor cell proliferation in EMT7 tumor-bearing mice, Gem and HU; assay type: in vivo; settings: female balb/C nu/nu mice, EMT7 tumors; Gem 125 mg/kg every other day, HU 500 mg/kg daily; 5 days
Description: Female balb/C nu/nu mice were implanted subcutaneously with approximately 106 EMT7 mouse mammary carcinoma cells in matrigel. Tumors were allowed to reach ca.1500 mm^3 in size. Mice were labeled with ^2H2O and treated with either 125mg/kg gemzar (gemcitabine or Gem) or 500 mg/kg hydroxyurea (HU). Gem was administered every other day; HU daily; and control saline daily. At the end of 5 days tumors were removed and cell proliferation was measured as described, supra.

[2] = tested on: non-small cell lung carcinoma cells (SW1573); assay: Tumor cell proliferation (de novo DNA synthesis, 2H2O labeling) in SW1573 xenograft mice, gemcitabine; assay type: in vivo, human; settings: male balb/C nu/nu mice, SW1573 s.c. in matrigel, increasing doses every other day, 5 days
Description: as §1

bone marrow cells = assay: Bone marrow cell proliferation (de novo DNA synthesis, 2H2O labeling), gemcitabine study; assay type: in vivo, mouse; settings: male balb/C nu/nu mice with SW1573, increasing doses every other day, 5 days
Description: as §1

[3] = human, in vivo, po
Description: (§2) The ^2H2O was administered orally. The initial priming dose was carried out in the General Clinical Research Center (GCRC) of SF General Hospital. Subjects received a total of 350-400 mL of ^2H2O in the GCRC, given as divided doses over the course of 18-21 hours (70 mL of 70% ^2H2O, given every 3-4 hours), to achieve about 1.0% enrichment in the body water pool. The ^2H2O was purchased from-Isotec, Inc. (Miamisburgh, Ohio) and dispensed in sterile containers. Subjects then took 50 mL of 70% ^2H2O three times a day for 5 days, then 35-50 mL twice-a-day for the remainder of the 8-10 week labeling protocol. This protocol achieves near-plateau body ^2H2O enrichments (1.5-2.0%, see below) within 5-7 days in most subjects and was well-tolerated. Subjects received the ^2H2O as individual aliquots (35-50 mL of 70% ^2H2O) in plastic vials, which were stored in the refrigerator.
^2H2O enrichments in body water were measured from plasma or urine. A 15-20 μL sample was reacted in an evacuated GC vial with calcium carbide to produce acetylene. The acetylene gas was then transferred with a syringe and injected into an evacuated GC vial containing 10% bromine in carbon tetrachloride and incubated at room temperature for 2 hours to produce tetrabromoethane. […] The tetrabromoethane, containing hydrogen atoms from body H2O, was then analyzed by GC/MS.

[4] = Food intake and body weight under 2H2O treatment in mice; assay type: in vivo, mouse; settings: ca. 2% body water enrichment then 4% 2H2O drinking water, 21 days
Description: Mice were injected with ^2H2O (deuterated water) at a dose to achieve approximately 2% enrichment in the body water pool. The normal drinking water was then replaced with water enriched to 4% ^2H2O. ^2H2O treatment had no impact on food intake or body weight. Twenty-one days following the start of ^2H2O administration, mice were fasted for four hours, anesthetized with isoflurane and exsanguinated via heart puncture. When possible, urine was collected at the same time.

[5] = Body water 2H2O enrichment in rats; assay type: in vivo, rat; settings: rats maintained on 4% 2H2O in drinking water after i.p. priming bolus
Description: ^2H2O labeling protocols in rodents consisted of an initial intraperitoneal priming bolus to 2.0-2.5% body water enrichment. The priming dose of ^2H2O (100%) was given to the rats (e.g., for a 225 g rat, 2% of 135 ml, or 2.7 ml, given in divided doses 1 hour apart) based on estimated 60% body weight as water, followed by administration of 4% ^2H2O in the drinking water. The 4% enrichment of ^2H2O in drinking water was chosen as a convenient dose that produces sufficient enrichments in biosynthetic products of interest and has no known toxicities. ^2H2O (70% and 100%) was purchased commercially from Cambridge Isotopes (Andover, Mass.). Drinking was ad-libitum. Rats were sacrificed by CO2 asphyxiation.
Body water ^2H2O enrichments were measured serially. The steady state body ^2H2O enrichments attained in rats maintained on 4% ^2H2O in drinking water were approximately 3.0% and were stable over time in individual animals.

[6] = Tolerability of oral 2H2O labeling protocol in human subjects; assay type: in vivo; settings: 8-10 week labeling protocol
Description: as §2

adipose tissue = assay: Adipose tissue dynamics (TG synthesis, de novo lipogenesis, adipocyte proliferation) in leptin treated ob/ob mice; assay type: in vivo, mouse
Description: Four week old, female, C57/b16j mice (Jackson Labs Bar Harbor, […].) were divided into four groups: C57/b16j^+/? controls (con), ad libitum fed C57/b16j^lep-/lep-(ob/ob), leptin treated ob/ob (ob-lep) and food restricted ob/ob (ob-r). All mice were housed individually in hanging wire cages and given free access to water. The light cycle was on from noon to midnight and mean temperature was 73° F. Diets were from a purified formula with 1 g “dustless” pellets used for the ad lib fed animals and 45 mg for the food restricted ob/ob mice (Bio Serv, Frenchtown, N.J.). Mice were given 3 days to acclimate to the environment, during which time some weight loss was observed. After the acclimation period, food restriction or leptin treatment was begun and food intake and body weights were measured periodically. […]
The percent of TG newly synthesized during the labeling period was calculated based on the precursor-product relationship, as described supra, using body water enrichment to estimate the maximal or asymptotic enrichment in TG-glycerol. The relationship between body water and the maximal TG-glycerol enrichment has been determined through combinatorial analysis (mass isotopomer distribution analysis MIDA) and by measurement of 100% replaced TG pools after long-term ^2H2O labeling. […] The fraction of TG which is newly synthesized is then calculated as: Fractional synthesis (f)=EM1/A1^∞. […]

## ClC(Cl)(Cl)Cl [CCl4, carbon tetrachloride]
Liver collagen; high dose of CCl4 (1.0 ml/kg 2x weekly)
  liver collagen synthesis relative to vehicle control, high dose: significant collagen synthesis occurred only at the highest dose; also recorded: increased
Liver collagen; low dose of CCl4 (0.25 mL/kg 2x weekly)
  liver collagen synthesis relative to vehicle control, low dose: no effect
Total liver cell; after 4 weeks of repeated CCl4 dosing
  new liver cells present: ~100%
Total liver cell; mice injected 2x weekly, both doses (1.0 ml/kg and 0.25 mL/kg), up to 4 weeks
  total liver cell proliferation relative to vehicle control: significantly increased; also recorded: significant cell proliferation occurred at both doses

## Nc1ccn([C@@H]2O[C@H](CO)[C@@H](O)C2(F)F)c(=O)n1 [Gem, gemcitabine]
colonocytes
  colon cell (colonocyte) proliferation: relatively little effect
colonocytes; listed as gemcitabine
  colon cell (colonocyte) proliferation: little inhibition
colonocytes; lower experimental doses
  colonocyte proliferation at the lower experimental doses: may have a stimulatory effect
[1]
  tumor cell proliferation relative to saline control: caused reductions; also recorded: decreased
[2]
  tumor cell proliferation: inhibits
[2]; listed as gemcitabine
  tumor cell proliferation: inhibited in tumor and bone marrow cells in a dose-response manner
Bone marrow cells
  bone marrow cell proliferation: inhibits
Bone marrow cells; listed as gemcitabine
  bone marrow cell proliferation: inhibited in tumor and bone marrow cells in a dose-response manner

## NC(=O)NO [HU, hydroxyurea]
[1]
  tumor cell proliferation relative to saline control: caused reductions; also recorded: decreased

## [2H]O[2H] [^2H2O]
[3]
  near-plateau body 2H2O enrichment: 1.5-2.0%
  time to near-plateau body 2H2O enrichment: 5 to 7 days
[4]
  impact on food intake or body weight: no impact
[5]
  steady state body 2H2O enrichment: approximately 3.0%
[6]
  tolerability of 2H2O protocol: well-tolerated

B1: leptin: murine leptin (Amgen) infused subcutaneously by osmotic pump (protein, UniProt P41160 22-167, looked up)
Leptin: VPIQKVQDDTKTLIKTIVTRINDISHTQSVSAKQRVTGLDFIPGLHPILSLSKMDQTLAVYQQVLTSLPSQNVLQIANDLENLRDLLHLLAFSKSCSLPQTSGLQKPESLDGVLEASLYSTEVVALSRLQGSLQDILQQLDVSPEC
Adipose tissue; leptin treated ob/ob mice
  TG retained (body fat balance): body fat was lost
Adipose tissue; ob/ob mice, murine leptin 2 μg/day s.c. osmotic pump, 21 days 2H2O
  effect on de novo lipogenesis, adipogenesis and triglyceride synthesis in adipose tissue: influenced all three pathways similarly
